Reference: article PMC9540480 (Clinical Pharmacology and Therapeutics, 2022)
Converted amounts (≈) assume the structure as drawn.

Tests used:
[1] = test system: ex vivo-stimulated IFN-α secretion (TLR7/8); assay type: in vivo, human
[2] = test system: IFN-α-accelerated NZB/W mouse model of lupus; settings: cited from earlier work
[3] = cited from earlier work
[4] = cited from earlier work; remark: listed apart in the source
[5] = test system: ex vivo-stimulated IL-6 secretion (TLR7/8); assay type: in vivo, human
[6] = test system: BXSB-Yaa mouse model of lupus; settings: cited from earlier work
[7] = test system: Caco-2; settings: cited from earlier work
[8] = test system: IL-6 secretion (TLR7/8); settings: mice, mouse models of lupus; cited from earlier work
[9] = test system: aldehyde oxidase enzyme; settings: shown in vitro; cited from earlier work
[10] = Population PK model of oral enpatoran, phase I healthy participant study; assay type: in vivo, human; settings: interindividual variability, PopPK model
[11] = phase I study in healthy participants; cited from earlier work

For `N#Cc1ccc(N2C[C@H](N)C[C@H](C(F)(F)F)C2)c2cccnc12` [enpatoran, Enpatoran], the IC90 ([1]; Homo sapiens) was 0.0221 µg/mL (≈ 0.069 µM), the “inhibition of cytokine release with increasing enpatoran concentrations” value ([1]; IFN-α, complete inhibition) was 100% and the Hill factor ([1]; ex vivo-stimulated IFN-α) was greater than 1.5. The IC60 ([1]; ex vivo-stimulated IFN-α, derived from IC50 and Hill factor) was 0.00843 µg/mL (≈ 0.0263 µM), the “doses suppressing disease development” value [2] was no less than 1 mg/kg and the “F (fraction of the oral dose systemically available)” value [3] was greater than 85%. For the same compound, the logP [4] was 2, the IC90 ([5]; Homo sapiens) was 0.0155 µg/mL (≈ 0.0484 µM) and the “inhibition of cytokine release with increasing enpatoran concentrations” value ([5]; IL-6, complete inhibition) was 100%. The Hill factor ([5]; ex vivo-stimulated IL-6) was greater than 1.5, the IC60 ([5]; ex vivo-stimulated IL-6, derived from IC50 and Hill factor) was 0.00559 µg/mL (≈ 0.0175 µM) and the “doses suppressing disease development” value [6] was no less than 1 mg/kg. For the same compound, the Caco-2 permeability [7] was 26 ×10⁻⁶ cm/s, the “lowest (minimally) efficacious dose” value [8] was 1 mg/kg and the metabolic route [9] was “metabolism via the aldehyde oxidase enzyme”. The “IIV CL/F” value [10] was 27.5 %CV and the tolerability [11] was “well‐tolerated”.
